{
  "source": "PubChem BioAssay AID1963961",
  "about": "(Molecular Pharmacology Branch, DTP, NCI, 2024);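 further: spheroids exposed to agents for seven days before read-out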",
  "test_system": "K98450-129-R-PDC multicell spheroids, viability",
  "experiment": "Anticancer human tumor K98450-129-R-PDC patient-derived colon adenocarcinoma cell line growth inhibition [PI3K]",
  "conditions": "for IC50: curve of first compound; for viability, T/C: stronger effect = lower value",
  "how_it_was_run": "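Combination activity was assessed by viability in multicellular tumor spheroids carrying HUVEC and MSC components. Agents were tested with PI3K inhibitors from a Cmax-based top dose (or 10 microM) downward in half-log increments.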",
  "data": [
    {"smiles": "Cn1nccc1Nc1nccc(-c2ccn(C(CO)c3ccc(Cl)c(F)c3)c(=O)c2)n1", "note": "(configuration not stated) + CC(Nc1ccc2c(c1)OCCn1cc(N3C(=O)OCC3C(F)F)nc1-2)C(N)=O", "values": [
      {"measurement": "IC50", "setting": "second compound 0.00316 µM", "result": "> 10", "unit": "µM"},
      {"measurement": "IC50", "setting": "second compound 0.01 µM", "result": "> 10", "unit": "µM"},
      {"measurement": "IC50", "setting": "second compound 0.0316 µM", "result": "> 10", "unit": "µM"},
      {"measurement": "IC50", "setting": "second compound 0.1 µM", "result": "> 10", "unit": "µM"},
      {"measurement": "IC50", "setting": "second compound 0.316 µM", "result": "> 10", "unit": "µM"},
      {"measurement": "IC50", "setting": "second compound 1 µM", "result": "> 10", "unit": "µM"},
      {"measurement": "viability, T/C", "setting": "second compound 0.00316 µM, first compound 0.0316 µM", "result": 109, "unit": "%"},
      {"measurement": "viability, T/C", "setting": "second compound 0.00316 µM, first compound 0.1 µM", "result": 96.3, "unit": "%"},
      {"measurement": "viability, T/C", "setting": "second compound 0.00316 µM, first compound 0.316 µM", "result": 107, "unit": "%"},
      {"measurement": "viability, T/C", "setting": "second compound 0.00316 µM, first compound 1 µM", "result": 99.2, "unit": "%"},
      {"measurement": "viability, T/C", "setting": "second compound 0.00316 µM, first compound 3.16 µM", "result": 101, "unit": "%"},
      {"measurement": "viability, T/C", "setting": "second compound 0.00316 µM, first compound 10 µM", "result": 94.2, "unit": "%"},
      {"measurement": "viability, T/C", "setting": "second compound 0.01 µM, first compound 0.0316 µM", "result": 108, "unit": "%"},
      {"measurement": "viability, T/C", "setting": "second compound 0.01 µM, first compound 0.1 µM", "result": 97.5, "unit": "%"},
      {"measurement": "viability, T/C", "setting": "second compound 0.01 µM, first compound 0.316 µM", "result": 99.1, "unit": "%"},
      {"measurement": "viability, T/C", "setting": "second compound 0.01 µM, first compound 1 µM", "result": 94.7, "unit": "%"},
      {"measurement": "viability, T/C", "setting": "second compound 0.01 µM, first compound 3.16 µM", "result": 98.8, "unit": "%"},
      {"measurement": "viability, T/C", "setting": "second compound 0.01 µM, first compound 10 µM", "result": 88.7, "unit": "%"},
      {"measurement": "viability, T/C", "setting": "second compound 0.0316 µM, first compound 0.0316 µM", "result": 103, "unit": "%"},
      {"measurement": "viability, T/C", "setting": "second compound 0.0316 µM, first compound 0.1 µM", "result": 103, "unit": "%"},
      {"measurement": "viability, T/C", "setting": "second compound 0.0316 µM, first compound 0.316 µM", "result": 96.5, "unit": "%"},
      {"measurement": "viability, T/C", "setting": "second compound 0.0316 µM, first compound 1 µM", "result": 94.4, "unit": "%"},
      {"measurement": "viability, T/C", "setting": "second compound 0.0316 µM, first compound 3.16 µM", "result": 99.2, "unit": "%"},
      {"measurement": "viability, T/C", "setting": "second compound 0.0316 µM, first compound 10 µM", "result": 91, "unit": "%"},
      {"measurement": "viability, T/C", "setting": "second compound 0.1 µM, first compound 0.0316 µM", "result": 95.5, "unit": "%"},
      {"measurement": "viability, T/C", "setting": "second compound 0.1 µM, first compound 0.1 µM", "result": 98.5, "unit": "%"},
      {"measurement": "viability, T/C", "setting": "second compound 0.1 µM, first compound 0.316 µM", "result": 98.2, "unit": "%"},
      {"measurement": "viability, T/C", "setting": "second compound 0.1 µM, first compound 1 µM", "result": 93.1, "unit": "%"},
      {"measurement": "viability, T/C", "setting": "second compound 0.1 µM, first compound 3.16 µM", "result": 98.9, "unit": "%"},
      {"measurement": "viability, T/C", "setting": "second compound 0.1 µM, first compound 10 µM", "result": 88.7, "unit": "%"},
      {"measurement": "viability, T/C", "setting": "second compound 0.316 µM, first compound 0.0316 µM", "result": 91.5, "unit": "%"},
      {"measurement": "viability, T/C", "setting": "second compound 0.316 µM, first compound 0.1 µM", "result": 90.7, "unit": "%"},
      {"measurement": "viability, T/C", "setting": "second compound 0.316 µM, first compound 0.316 µM", "result": 101, "unit": "%"},
      {"measurement": "viability, T/C", "setting": "second compound 0.316 µM, first compound 1 µM", "result": 96.2, "unit": "%"},
      {"measurement": "viability, T/C", "setting": "second compound 0.316 µM, first compound 3.16 µM", "result": 99.4, "unit": "%"},
      {"measurement": "viability, T/C", "setting": "second compound 0.316 µM, first compound 10 µM", "result": 87.4, "unit": "%"},
      {"measurement": "viability, T/C", "setting": "second compound 1 µM, first compound 0.0316 µM", "result": 83.6, "unit": "%"},
      {"measurement": "viability, T/C", "setting": "second compound 1 µM, first compound 0.1 µM", "result": 84.4, "unit": "%"},
      {"measurement": "viability, T/C", "setting": "second compound 1 µM, first compound 0.316 µM", "result": 91, "unit": "%"},
      {"measurement": "viability, T/C", "setting": "second compound 1 µM, first compound 1 µM", "result": 87.7, "unit": "%"},
      {"measurement": "viability, T/C", "setting": "second compound 1 µM, first compound 3.16 µM", "result": 90.9, "unit": "%"},
      {"measurement": "viability, T/C", "setting": "second compound 1 µM, first compound 10 µM", "result": 82.2, "unit": "%"}
    ]}
  ]
}
